Laboratory results published in ChEMBL document CHEMBL4699592, “Nature-Inspired (di)Azine-Bridged Bisindole Alkaloids with Potent Antibacterial In Vitro and In Vivo Efficacy against Methicillin-Resistant Staphylococcus aureus” (J Med Chem, 2020).
≈ marks a conversion by molar mass, not a printed value. Calls of active or inactive are those of the source. The rule behind the calls is not given here.

Key:
[1] = Selectivity index, ratio of IC50 for cytotoxicity against human THP-1 cells to MIC90 for antibacterial activity against […] Staphylococcus aureus ATCC 700699; type: toxicity, cell-based; conditions: read-out: Selectivity Index
[2] = tested on: MRC5; assay: Cytotoxicity against human MRC5 cells assessed as reduction in cell viability at >=12.5 uM measured after 48 hrs by resazurin dye based fluorescence assay; conditions: mrc5, 48 h
[3] = tested on: THP-1; assay: Cytotoxicity against human THP-1 cells assessed as reduction in cell viability at >=12.5 uM measured after 48 hrs by resazurin dye based fluorescence assay; conditions: thp-1, 48 h
[4] = tested on: Acinetobacter baumannii; assay: Antibacterial activity against Acinetobacter baumannii ATCC BAA-1605 at 0.78 to 100 uM after 24 hrs by broth microdilution method; type: functional, organism-based; conditions: dose microM 0.78-100, time 24.0 hrs
[5] = tested on: Mycobacterium tuberculosis; assay: Antibacterial activity against Mycobacterium tuberculosis H37Rv at 0.78 to 100 uM after 5 days by resazurin dye based fluorescence assay; type: functional, organism-based; conditions: dose microM 0.78-100, time 5.0 day
[6] = tested on: Staphylococcus aureus; assay: Antibacterial activity against […] Staphylococcus aureus ATCC 700699 after 24 hrs by broth microdilution method; type: functional
[7] = Selectivity index, ratio of IC50 for cytotoxicity against human MRC5 cells to MIC90 for antibacterial activity against […] Staphylococcus aureus ATCC 700699; type: toxicity, cell-based; conditions: read-out: Selectivity Index
[8] = tested on: Staphylococcus aureus; assay: Bactericidal activity against […] Staphylococcus aureus ATCC 700699 assessed as reduction in bacterial viability at 5 fold MIC incubated for 6 hrs by time kill assay relative to control; type: functional
[9] = tested on: Staphylococcus aureus; assay: Bactericidal activity against […] Staphylococcus aureus ATCC 700699 assessed as colony forming units at 5 fold MIC measured after 24 hrs by time kill assay; type: functional
[10] = tested on: Staphylococcus aureus; assay: Antibacterial activity against methicillin-resistant Staphylococcus aureus USA300 LAC at 0.15 to 25 uM incubated for 24 hrs under low glucose medium by resazurin dye based fluorescence assay; type: functional, organism-based; conditions: dose microM 0.15-25, time 24.0 hrs
[11] = tested on: Staphylococcus aureus; assay: Antibacterial activity against methicillin-resistant Staphylococcus aureus USA300 LAC at 0.15 to 25 uM incubated for 24 hrs under low pyruvate containing medium by resazurin dye based fluorescence assay; type: functional, organism-based; conditions: dose microM 0.15-25, time 24.0 hrs
[12] = tested on: Staphylococcus aureus; assay: Antibacterial activity against methicillin-resistant pyruvate kinase deficient Staphylococcus aureus USA300 LAC at 0.15 to 25 uM incubated for 24 hrs under low pyruvate containing medium by resazurin dye based fluorescence assay; type: functional, organism-based; conditions: dose microM 0.15-25, time 24.0 hrs
[13] = tested on: Pseudomonas aeruginosa; assay: Antibacterial activity against Pseudomonas aeruginosa ATCC 27853 measured after 24 hrs by broth microdilution method; type: functional
[14] = tested on: Acinetobacter baumannii; assay: Antibacterial activity against Acinetobacter baumannii ATCC BAA-1605 after 24 hrs by broth microdilution method; type: functional
[15] = tested on: Escherichia coli; assay: Antimicrobial activity against Escherichia coli ATCC BAA 2469 after 24 hrs by broth microdilution assay; type: functional
[16] = tested on: Klebsiella pneumoniae; assay: Antibacterial activity against Klebsiella pneumoniae ATCC 700603 after 24 hrs by broth microdilution method; type: functional
[17] = tested on: Enterococcus faecium; assay: Antibacterial activity against vancomycin-resistant Enterococcus faecium ATCC 35667 at 0.78 to 100 uM after 24 hrs by broth microdilution method; type: functional, organism-based; conditions: dose microM 0.78-100, time 24.0 hrs
[18] = tested on: Enterococcus faecium; assay: Antibacterial activity against vancomycin-resistant Enterococcus faecium ATCC 700221 at 0.78 to 100 uM after 24 hrs by broth microdilution method; type: functional, organism-based; conditions: dose microM 0.78-100, time 24.0 hrs
[19] = tested on: Enterococcus faecalis; assay: Antibacterial activity against Enterococcus faecalis ATCC 51299 at 0.78 to 100 uM after 24 hrs by broth microdilution method; type: functional, organism-based; conditions: dose microM 0.78-100, time 24.0 hrs
[20] = tested on: Enterococcus faecalis; assay: Antibacterial activity against Enterococcus faecalis ATCC 29212 at 0.78 to 100 uM after 24 hrs by broth microdilution method; type: functional, organism-based; conditions: dose microM 0.78-100, time 24.0 hrs
[21] = tested on: Staphylococcus aureus; assay: Antibacterial activity against methicillin susceptible Staphylococcus aureus ATCC 25923 at 0.78 to 100 uM after 24 hrs by broth microdilution method; type: functional, organism-based; conditions: dose microM 0.78-100, time 24.0 hrs
[22] = Solubility of compound in pH 7.7 PBS buffer; type: physicochemical
[23] = tested on: Cell membrane; assay: Induction of cell membrane permeabilization in methicillin resistant Staphylococcus aureus ATCC 700699 measured at 5 mins interval for 2 hrs by propidium iodide staining based fluorescence assay; type: subcellular
[24] = tested on: Cell membrane; assay: Induction of cell membrane permeabilization in GFP-expressing Staphylococcus aureus ATCC 700699 assessed as increase in cellular ATP leakage at 5 fold MIC measured after 0.5 hrs by Bactiter-glo assay; type: subcellular
[25] = tested on: HEK293; assay: Cytotoxicity against HEK293 cells assessed as reduction in cell viability at >12.5 uM measured after 48 hrs by resazurin dye based fluorescence assay; conditions: human, hek293, 48 h
[26] = tested on: HepG2; assay: Cytotoxicity against human HepG2 cells assessed as reduction in cell viability at >12.5 uM measured after 48 hrs by resazurin dye based fluorescence assay; conditions: hepg2, 48 h
[27] = Cytotoxicity against human CLS-54 cells assessed as reduction in cell viability at >12.5 uM measured after 48 hrs by resazurin dye based fluorescence assay; conditions: cls-54, 48 h
[28] = tested on: Staphylococcus aureus; assay: Inhibition of Staphylococcus aureus ATCC 700699 N-terminal His6-tagged pyruvate kinase expressed in Escherichia coli NiCo21(DE3) at 12.5 uM using phosphoenolpyruvate as substrate measured for 5 mins by LDH-coupled assay
[29] = target: Pyruvate kinase PKM (Oryctolagus cuniculus) (UniProt P11974); assay: Inhibition of rabbit muscle pyruvate kinase up to 12.5 uM using phosphoenolpyruvate as substrate measured for 5 mins by LDH-coupled assay; conditions: dose microM <=12.5, time 5.0 min
Chain of Pyruvate kinase PKM (Oryctolagus cuniculus) (P11974 whole entry): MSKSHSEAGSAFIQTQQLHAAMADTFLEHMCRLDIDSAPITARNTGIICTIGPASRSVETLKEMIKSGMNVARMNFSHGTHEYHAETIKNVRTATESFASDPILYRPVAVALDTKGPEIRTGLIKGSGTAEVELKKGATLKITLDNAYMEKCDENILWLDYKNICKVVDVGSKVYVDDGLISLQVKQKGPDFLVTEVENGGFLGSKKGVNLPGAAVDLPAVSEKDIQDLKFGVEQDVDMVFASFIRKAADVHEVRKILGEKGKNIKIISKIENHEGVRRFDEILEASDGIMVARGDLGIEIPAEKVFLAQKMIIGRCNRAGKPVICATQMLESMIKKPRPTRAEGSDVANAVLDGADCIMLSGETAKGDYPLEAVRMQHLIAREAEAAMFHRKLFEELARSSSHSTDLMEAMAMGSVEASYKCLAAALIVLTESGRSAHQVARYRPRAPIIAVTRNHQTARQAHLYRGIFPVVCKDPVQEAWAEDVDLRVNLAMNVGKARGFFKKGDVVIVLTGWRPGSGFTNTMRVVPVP

In the case of Clc1ccc2[nH]cc(-c3ccc(-c4c[nH]c5ccc(Cl)cc45)nn3)c2c1, the selectivity ratio [1] is reported as 8, the Activity [2] is reported as “Toxic” and the Activity [3] is reported as “Toxic”. For the same compound, the Activity [4] was “inactive”, the Activity [5] was “inactive” and the MIC90 [6] was 0.78 µM (≈ 0.296 µg/mL). The selectivity ratio [7] was 8, the “fold change (FC)” value [8] was 100 and the Activity [9] was less than 10 CFU/ml. For the same compound, the Activity [10] was “Active”, the Activity [11] was “Active” and the Activity [12] was “Active”.

COLISTIN showed an MIC [13] of 0.39 µM, an MIC [14] of 0.78 µM and an MIC [15] of 0.78 µM. The MIC [16] was 1.56 µM.

In the case of c1cc(-c2c[nH]c3ccccc23)nc(-c2c[nH]c3ccccc23)c1, the Activity [4] is reported as “inactive”, the Activity [5] is reported as “inactive” and the MIC90 [6] is reported as greater than 100 µM.

In the case of COc1ccc2[nH]cc(-c3cnc(-c4c[nH]c5ccc(OC)cc45)nc3)c2c1, the Activity [17] is reported as “inactive”, the Activity [18] is reported as “inactive” and the Activity [19] is reported as “inactive”. For the same compound, the Activity [20] was “inactive”, the Activity [4] was “inactive” and the Activity [5] was “inactive”. For the same compound, the Activity [21] was “inactive” and the MIC90 [6] was 50 µM (≈ 18.5 µg/mL).

For Clc1ccc2[nH]cc(-c3cncc(-c4c[nH]c5ccc(Cl)cc45)n3)c2c1, the Activity [4] was “inactive”, the Activity [5] was “inactive” and the MIC90 [6] was 0.39 µM (≈ 0.148 µg/mL). The solubility [22] was “Insoluble”.

In the case of COc1c(N2C[C@@H]3CCCN[C@@H]3C2)c(F)cc2c(=O)c(C(=O)O)cn(C3CC3)c12, the Activity [23] is reported as “inactive” and the Activity [24] is reported as “inactive”.

For c1ccc2c(-c3cnc(-c4c[nH]c5ccccc45)cn3)c[nH]c2c1, the Activity [4] was “inactive”, the Activity [5] was “inactive” and the MIC90 [6] was greater than 100 µM.

In the case of Clc1ccc2[nH]cc(-c3ccnc(-c4c[nH]c5ccc(Cl)cc45)n3)c2c1, the selectivity ratio [1] is reported as 32, the Activity [2] is reported as “Toxic” and the Activity [3] is reported as “Toxic”. For the same compound, the Activity [17] was “Active”, the Activity [18] was “Active” and the Activity [19] was “Active”. The Activity [20] was “Active”, the Activity [4] was “Active” and the Activity [5] was “Active”. For the same compound, the Activity [21] was “Active”, the MIC90 [6] was 3.13 µM (≈ 1.19 µg/mL) and the selectivity ratio [7] was 32. The Activity [25] was “Toxic”, the Activity [26] was “Toxic” and the Activity [27] was “Toxic”. For the same compound, the “fold change (FC)” value [8] was 10000, the Activity [9] was less than 10 CFU/ml and the Activity [10] was “Active”. The Activity [11] was “Active”, the Activity [12] was “Active” and the inhibition [28] was “inactive”. The inhibition [29] was “inactive”.

In the case of c1ccc2c(-c3ccc(-c4c[nH]c5ccccc45)nn3)c[nH]c2c1, the Activity [4] is reported as “inactive”, the Activity [5] is reported as “inactive” and the MIC90 [6] is reported as greater than 100 µM.

With Oc1ccc2[nH]cc(-c3cnc(-c4c[nH]c5ccc(O)cc45)nc3)c2c1 [HYRTINADINE A] the Activity [17] was “inactive”, the Activity [18] was “inactive” and the Activity [19] was “inactive”. The Activity [20] was “inactive”, the Activity [4] was “inactive” and the Activity [5] was “inactive”. The Activity [21] was “inactive” and the MIC90 [6] was greater than 100 µM.

For Fc1ccc2[nH]cc(-c3cnc(-c4c[nH]c5ccc(F)cc45)nc3)c2c1, the Activity [4] was “inactive”, the Activity [5] was “inactive” and the MIC90 [6] was 12.5 µM (≈ 4.33 µg/mL).
